# Data as given in publication PMC10636171 (Cell Death & Disease, 2023).
# Key:
# 284 kinases = system: 284 kinases; design: method as in PMID 25736998; details: 100 nM; 284 kinases tested; cited from earlier work
# MHCC97H xenograft tumor = MHCC97H xenograft tumor model; assay type: in vivo, BALB/c nude mice; details: Tepotinib group (dose not given), ig, calculated through tumor weight
# Protocol: (§1) Male BALB/c nude mice (5-week old, 18–20 g) were purchased from Beijing Vital River Laboratory Animal Technology (Beijing Vital River LaboratoryAnimal Technology Co., Ltd., Beijing,China) and allowed to acclimate for 1 week, maintained at constant room temperature and fed a standard rodent chow and water. 1 × 10^7 cells/mL cancer cells grown in logarithmic phase were harvested and resuspended in FBS-free 1640 medium. Then, 100 μL of the cell suspension was subcutaneously injected into the right flank of each mouse. When the tumour volume was reached about 600–800 mm^3, it was removed, minced into small pieces of equal volume (2 × 2 × 2 mm^3), and transplanted subcutaneously into the nude mice. When the tumour volume was reached about 200–400 mm^3, the xenograft tumour-bearing nude mice were randomly allocated to five groups (vehicle-treated, 1D228-2mgd-treated, 1D228-4mgd-treated […] Tepotinib-treated groups, with 6 or 8 mice (The number of mice were determined according to previous experience on xenograft tumor models) per group. Each group was dosed by intragastric administration (ig) for 7–14 days. Tumour volume and body weights were recorded every day after drug treatment. At the end of the observation period, the animals were euthanized by cervical dislocation and the tumour bulks were peeled off conformed to the Guide for the Care and Use of Laboratory Animals as published by the US National Institutes of Health (NIH Publication No. 85-23, revised 1996) and approved by the Institutional Ethics Review Board of Binzhou Medical University. There was no blinding was done during the animal experiment. No animals were excluded from the analysis.
# MKN45 xenograft tumor = MKN45 xenograft tumor model; assay type: in vivo, BALB/c nude mice; details: 8 mg/kg/d, ig
# Protocol: as §1
# [1] = Liver microsomal stability assay; assay type: in vitro ADME; details: liver microsomes, pH 7.4
# Protocol: The incubation system (including 0.1 M PH 7.4 phosphate buffer, NADPH generation system, UGT incubation system, 0.5 mg/mL liver microsomal protein and appropriate concentration of drug to be tested) was incubated in a water bath at 37 °C for […]. Each sample was incubated three times in parallel, and an equal volume of pre-chilled acetonitrile was added at preset reaction time points, such as 0, 5, 10, 15, 30 and 60 min. The reaction was terminated by the addition of acetonitrile. The remaining content of the prototype drug in the warm incubation solution was determined by HPLC, HPLC-MC and HPLC-MC/MC.
# HS746T = assay: CCK8 antiproliferative assay; assay type: cell-based; details: Homo sapiens, Hs746T, 72 h, read-out: IC50, cell proliferation
# Protocol: (§2) For cytotoxicity assay, the cells grown in the logarithmic phase were seeded into 96-well plates (7 × 10^3 cells/well) for 24 h, then exposed to different concentrations (10, 5, 1, 0.1, 0.01 and 0.001 μM) of the test compounds for 72 h. After attached cells were incubated with CCK8 (Sigma, USA) for another 1–4 h. Then the absorbance at 450 nm was measured using a multifunction microplate reader (Molecular Devices, Flex Station 3), and each experiment was performed at least in triplicate.
# MKN45 = assay: CCK8 antiproliferative assay; assay type: cell-based; details: Homo sapiens, MKN-45, 72 h, read-out: IC50, cell proliferation
# Protocol: as §2
# ASPC1 = assay: CCK8 antiproliferative assay; assay type: cell-based; details: Homo sapiens, ASPC1, 72 h, read-out: IC50, cell proliferation
# Protocol: as §2
compound,measurement,setting,value
"CN1CCC(COc2cnc(-c3cccc(Cn4nc(-c5cccc(C#N)c5)ccc4=O)c3)nc2)CC1 [Tepotinib, reference compound]",Inhibition of kinases other than c-Met,284 kinases,not able to inhibit any other kinase
same,Tumor growth inhibition (TGI),MHCC97H xenograft tumor,63.9%
same,TGI,MKN45 xenograft tumor,67.61%
same,half-life,"[1]; Sprague-Dawley, rat, SD rats liver microsome",0.301 h
same,half-life,"[1]; cynomolgus monkey, Macaca fascicularis liver microsome",22.5 h
same,half-life,"[1]; dog, Beagle liver microsome",1.04 h
same,half-life,[1]; Human liver microsome,30.5 h
same,half-life,"[1]; mouse, CD - 1 mice liver microsome",0.252 h
same,IC50,HS746T,3.6 µM
same,IC50,MKN45,0.00165 µM
same,IC50,ASPC1,3.78 µM
